According to patent publication US20260183301A1, “TREATING DISEASES AND DISORDERS WITH IRAK4-MODIFYING COMPOUNDS” (Curis, Inc., priority 2022, published 2026):
Entries after “also recorded” stand apart in the source; their conditions may differ.

Assay: Phase I dose escalation trial in NHL: safety and tolerance (adverse effects, DLT)
[1] = 200 mg BID, N = 5, [E] not defined
[2] = 300 mg BID, N = 6, [E] not defined
[3] = 400 mg BID, N = 8, [E] not defined

Protocol: Seven dosing cohorts included 50 and 100 mg QD, and 50, 100, 200, 300, or 400 mg BID of daily continuous oral monotherapy in 21-Day cycles. Objective included safety and tolerance (primary), pk/pd and early efficacy (secondary), and biomarker correlations (exploratory). 31 patients with resistant or refractory, advanced NHL have been enrolled.

Cc1cc(-c2nc(C(=O)Nc3cc4oc(N5CCOCC5)nc4nc3N3CC[C@@H](O)C3)co2)ccn1 [Compound 1, emavusertib]
Back pain, All Grades (200 mg BID (n = 5)): 20%
Back pain, Grade 3 or 4 (200 mg BID (n = 5)): 0%
Constipation, All Grades (200 mg BID (n = 5)): 20%
Constipation, Grade 3 or 4 (200 mg BID (n = 5)): 0%
Cough, All Grades (200 mg BID (n = 5)): 40%
Cough, Grade 3 or 4 (200 mg BID (n = 5)): 0%
Dehydration, All Grades (200 mg BID (n = 5)): 20%
Dehydration, Grade 3 or 4 (200 mg BID (n = 5)): 0%
Diarrhea, All Grades (200 mg BID (n = 5)): 20%
Diarrhea, Grade 3 or 4 (200 mg BID (n = 5)): 0%
Dizziness, All Grades (200 mg BID (n = 5)): 0%
Dizziness, Grade 3 or 4 (200 mg BID (n = 5)): 0%
Dyspnoe, All Grades (200 mg BID (n = 5)): 20%
Dyspnoe, Grade 3 or 4 (200 mg BID (n = 5)): 0%
Fatigue, All Grades (200 mg BID (n = 5)): 40%
Fatigue, Grade 3 or 4 (200 mg BID (n = 5)): 0%
Headache, All Grades (200 mg BID (n = 5)): 20%
Headache, Grade 3 or 4 (200 mg BID (n = 5)): 0%
Insomnia, All Grades (200 mg BID (n = 5)): 20%
Insomnia, Grade 3 or 4 (200 mg BID (n = 5)): 0%
Muscle weakness, All Grades (200 mg BID (n = 5)): 20%
Muscle weakness, Grade 3 or 4 (200 mg BID (n = 5)): 20%
Myalgia, All Grades (200 mg BID (n = 5)): 40%
Myalgia, Grade 3 or 4 (200 mg BID (n = 5)): 0%
Nausea, All Grades (200 mg BID (n = 5)): 20%
Nausea, Grade 3 or 4 (200 mg BID (n = 5)): 0%
Oedema, All Grades (200 mg BID (n = 5)): 25%
Oedema, Grade 3 or 4 (200 mg BID (n = 5)): 0%
Peripheral sensory neuropathy, All Grades (200 mg BID (n = 5)): 0%
Peripheral sensory neuropathy, Grade 3 or 4 (200 mg BID (n = 5)): 0%
Rhabdomyolysis, All Grades (200 mg BID (n = 5)): 0%
Rhabdomyolysis, Grade 3 or 4 (200 mg BID (n = 5)): 0%
Upper respiratory infection, All Grades (200 mg BID (n = 5)): 40%
Upper respiratory infection, Grade 3 or 4 (200 mg BID (n = 5)): 20%
Vomiting, All Grades (200 mg BID (n = 5)): 20%
Vomiting, Grade 3 or 4 (200 mg BID (n = 5)): 0%
Anemia, All Grades (200 mg BID, N = 5): 1 (20.0) n (%)
Anemia, Grade 3 or Higher (200 mg BID, N = 5): 0 n (%)
Neutropenia, All Grades (200 mg BID, N = 5): 2 (40.0) n (%)
Neutropenia, Grade 3 or Higher (200 mg BID, N = 5): 2 (40.0) n (%)
Thrombocytopenia, All Grades (200 mg BID, N = 5): 0 n (%)
Thrombocytopenia, Grade 3 or Higher (200 mg BID, N = 5): 0 n (%)
Anemia, All Grades [E] [1]: [1]
Neutropenia, All Grades [E] [1]: [3]
Neutropenia, Grade 3 or Higher [E] [1]: [2]
Back pain, All Grades (300 mg BID (n = 6)): 0%
Back pain, Grade 3 or 4 (300 mg BID (n = 6)): 0%
Constipation, All Grades (300 mg BID (n = 6)): 0%
Constipation, Grade 3 or 4 (300 mg BID (n = 6)): 0%
Cough, All Grades (300 mg BID (n = 6)): 0%
Cough, Grade 3 or 4 (300 mg BID (n = 6)): 0%
Dehydration, All Grades (300 mg BID (n = 6)): 0%
Dehydration, Grade 3 or 4 (300 mg BID (n = 6)): 0%
Diarrhea, All Grades (300 mg BID (n = 6)): 40%
Diarrhea, Grade 3 or 4 (300 mg BID (n = 6)): 0%
Dizziness, All Grades (300 mg BID (n = 6)): 0%
Dizziness, Grade 3 or 4 (300 mg BID (n = 6)): 0%
Dyspnoe, All Grades (300 mg BID (n = 6)): 0%
Dyspnoe, Grade 3 or 4 (300 mg BID (n = 6)): 0%
Fatigue, All Grades (300 mg BID (n = 6)): 0%
Fatigue, Grade 3 or 4 (300 mg BID (n = 6)): 0%
Headache, All Grades (300 mg BID (n = 6)): 0%
Headache, Grade 3 or 4 (300 mg BID (n = 6)): 0%
Insomnia, All Grades (300 mg BID (n = 6)): 0%
Insomnia, Grade 3 or 4 (300 mg BID (n = 6)): 0%
Muscle weakness, All Grades (300 mg BID (n = 6)): 0%
Muscle weakness, Grade 3 or 4 (300 mg BID (n = 6)): 0%
Myalgia, All Grades (300 mg BID (n = 6)): 0%
Myalgia, Grade 3 or 4 (300 mg BID (n = 6)): 0%
Nausea, All Grades (300 mg BID (n = 6)): 17%
Nausea, Grade 3 or 4 (300 mg BID (n = 6)): 0%
Oedema, All Grades (300 mg BID (n = 6)): 0%
Oedema, Grade 3 or 4 (300 mg BID (n = 6)): 0%
Peripheral sensory neuropathy, All Grades (300 mg BID (n = 6)): 0%
Peripheral sensory neuropathy, Grade 3 or 4 (300 mg BID (n = 6)): 0%
Rhabdomyolysis, All Grades (300 mg BID (n = 6)): 0%
Rhabdomyolysis, Grade 3 or 4 (300 mg BID (n = 6)): 0%
Upper respiratory infection, All Grades (300 mg BID (n = 6)): 0%
Upper respiratory infection, Grade 3 or 4 (300 mg BID (n = 6)): 0%
Vomiting, All Grades (300 mg BID (n = 6)): 20%
Vomiting, Grade 3 or 4 (300 mg BID (n = 6)): 20%
Anemia, All Grades (300 mg BID, N = 6): 2 (33.3) n (%)
Anemia, Grade 3 or Higher (300 mg BID, N = 6): 0 n (%)
Neutropenia, All Grades (300 mg BID, N = 6): 1 (16.7) n (%)
Neutropenia, Grade 3 or Higher (300 mg BID, N = 6): 1 (16.7) n (%)
Thrombocytopenia, All Grades (300 mg BID, N = 6): 0 n (%)
Thrombocytopenia, Grade 3 or Higher (300 mg BID, N = 6): 0 n (%)
Anemia, All Grades [E] [2]: [3]
Neutropenia, All Grades [E] [2]: [5]
Neutropenia, Grade 3 or Higher [E] [2]: [1]
DLT (300 mg BID, six patients): without DLT
Back pain, All Grades (400 mg BID (n = 8)): 12.5%
Back pain, Grade 3 or 4 (400 mg BID (n = 8)): 0%
Constipation, All Grades (400 mg BID (n = 8)): 20%
Constipation, Grade 3 or 4 (400 mg BID (n = 8)): 0%
Cough, All Grades (400 mg BID (n = 8)): 0%
Cough, Grade 3 or 4 (400 mg BID (n = 8)): 0%
Dehydration, All Grades (400 mg BID (n = 8)): 12.5%
Dehydration, Grade 3 or 4 (400 mg BID (n = 8)): 0%
Diarrhea, All Grades (400 mg BID (n = 8)): 25%
Diarrhea, Grade 3 or 4 (400 mg BID (n = 8)): 0%
Dizziness, All Grades (400 mg BID (n = 8)): 25%
Dizziness, Grade 3 or 4 (400 mg BID (n = 8)): 0%
Dyspnoe, All Grades (400 mg BID (n = 8)): 12.5%
Dyspnoe, Grade 3 or 4 (400 mg BID (n = 8)): 12.5%
Fatigue, All Grades (400 mg BID (n = 8)): 50%
Fatigue, Grade 3 or 4 (400 mg BID (n = 8)): 0%
Headache, All Grades (400 mg BID (n = 8)): 12.5%
Headache, Grade 3 or 4 (400 mg BID (n = 8)): 0%
Insomnia, All Grades (400 mg BID (n = 8)): 12.5%
Insomnia, Grade 3 or 4 (400 mg BID (n = 8)): 0%
Muscle weakness, All Grades (400 mg BID (n = 8)): 12.5%
Muscle weakness, Grade 3 or 4 (400 mg BID (n = 8)): 0%
Myalgia, All Grades (400 mg BID (n = 8)): 37.5%
Myalgia, Grade 3 or 4 (400 mg BID (n = 8)): 0%
Nausea, All Grades (400 mg BID (n = 8)): 50%
Nausea, Grade 3 or 4 (400 mg BID (n = 8)): 0%
Oedema, All Grades (400 mg BID (n = 8)): 0%
Oedema, Grade 3 or 4 (400 mg BID (n = 8)): 0%
Peripheral sensory neuropathy, All Grades (400 mg BID (n = 8)): 25%
Peripheral sensory neuropathy, Grade 3 or 4 (400 mg BID (n = 8)): 0%
Rhabdomyolysis, All Grades (400 mg BID (n = 8)): 25%
Rhabdomyolysis, Grade 3 or 4 (400 mg BID (n = 8)): 25%
Upper respiratory infection, All Grades (400 mg BID (n = 8)): 12.5%
Upper respiratory infection, Grade 3 or 4 (400 mg BID (n = 8)): 0%
Vomiting, All Grades (400 mg BID (n = 8)): 25%
Vomiting, Grade 3 or 4 (400 mg BID (n = 8)): 0%
Anemia, All Grades (400 mg BID, N = 8): 1 (12.5) n (%)
Anemia, Grade 3 or Higher (400 mg BID, N = 8): 1 (12.5) n (%)
Neutropenia, All Grades (400 mg BID, N = 8): 2 (25.0) n (%)
Neutropenia, Grade 3 or Higher (400 mg BID, N = 8): 0 n (%)
Thrombocytopenia, All Grades (400 mg BID, N = 8): 1 (12.5) n (%)
Thrombocytopenia, Grade 3 or Higher (400 mg BID, N = 8): 1 (12.5) n (%)
Anemia, All Grades [E] [3]: [1]
Anemia, Grade 3 or Higher [E] [3]: [1]
Neutropenia, All Grades [E] [3]: [3]
Thrombocytopenia, All Grades [E] [3]: [2]
Thrombocytopenia, Grade 3 or Higher [E] [3]: [2]
DLT-evaluable patients with Grade 3 rhabdomyolysis (DLTs) (400 mg BID, reversible after treatment interruption): 2 of 5
Grade 3 combined episodes of neutropenia, anemia, thrombocytopenia (18 patients at 200 to 400 mg BID): 4
toxic deaths (Phase I NHL): No toxic deaths
overall safety and tolerance (Phase I NHL, 50 mg QD to 400 mg BID): well tolerated; also recorded: good safety and tolerance
creatine phosphokinase (CPK) elevation, grade (WM patient, 200 mg po BID, asymptomatic, resolved with exercise moderation): grade 2
tolerability (WM patient, continuous oral treatment for close to 18 months): well tolerated
tolerability (WM patient, first dose level 50 mg): without adverse events
safety and tolerability profile (at RP2D (300 mg BID)): acceptable safety and tolerability profile
grade of most non-hematologic TEAEs (diarrhea, vomiting, fatigue, dyspnea, myalgia): Grade 1 or 2
